# Assay results published in US20120040953A1, “Compounds for the Treatment of Metabolic Disorders” (PROSIDION LIMITED, priority 2009, published 2012).
# Test system: male C57Bl/6 or male ob/ob mice
# Assay: Oral glucose tolerance test in mice
# Assay type: in vivo
# Conditions: dose of 30 mg kg^−1, oral
# Protocol: The effects of compounds of the invention on oral glucose (Glc) tolerance were evaluated in male C57Bl/6 or male ob/ob mice. Food was withdrawn 5 h before administration of Glc and remained withdrawn throughout the study. Mice had free access to water during the study. A cut was made to the animals' tails, then blood (20 μL) was removed for measurement of basal Glc levels 45 min before administration of the Glc load. Then, the mice were weighed and dosed orally with test compound or vehicle (20% aqueous hydroxypropyl-β-cyclodextrin or 25% aqueous Gelucire 44/14) 30 min before the removal of an additional blood sample (20 μL) and treatment with the Glc load (2-5 g kg^−1 p.o.). Blood samples (20 μL) were then taken 25, 50, 80, 120, and 180 min after Glc administration. The 20 μL blood samples for measurement of Glc levels were taken from the cut tip of the tail into disposable micro-pipettes (Dade Diagnostics Inc., Puerto Rico) and the sample added to 480 μL of haemolysis reagent. Duplicate 20 μL aliquots of the diluted haemolysed blood were then added to 180 μL of Trinders glucose reagent (Sigma enzymatic (Trinder) colorimetric method) in a 96-well assay plate. After mixing, the samples were left at room temperature for 30 min before being read against Glc standards (Sigma glucose/urea nitrogen combined standard set).
compound,measurement,value
"CC(C)OC(=O)N1CCC(O[C@H](C)c2nc(-c3cnc(N4C[C@H](c5cc(F)ccc5F)[C@@H](N)C4)nc3)no2)CC1.Cc1ccc(S(=O)(=O)O)cc1 [Example 18, 4-[(R)-1-(3-{2-[(3R,4S)-3-Amino-4-(2,5-difluorophenyl)pyrrolidin-1-yl]pyrimidin-5-yl}-[1,2,4]oxadiazol-5-yl)ethoxy]piperidine-1-carboxylic acid isopropyl ester p-toluenesulfonic acid salt]",reduction in the Glc excursion,> 40%
